Here are results for nine compounds from PubChem BioAssay (NCI).

What all share (test): NCI tumour cell line growth inhibition, 48 h
Experiment [1] deals with ACHN renal.
For experiment [2], the system named is DU-145 prostate.
For experiment [3], the system named is HOP-62 NSCLC.
Experiment [4] concerns MCF7 breast.
Experiment [5] has as its system NCI-H522 lung.
Experiment [6] has as its system PC-3 prostate.
In experiment [7] the test system is SF-268 CNS.
Experiment [8] relates to SW-620 colon.
Experiment [9] concerns UACC-62 melanoma.
Experiment [10] concerns A498 renal.

Several values for one entry are separate records, joined by “and”; a condition that tells them apart may be missing. Equal entries are not always repeated.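 All cell lines were grown in 96-well plates and treated with compound for 48 hours. The concentration for 50% growth inhibition is given as GI50. TGI: concentration producing complete growth inhibition.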

For `CCC(C)CC(CC)NCCN1CCN(C(CC)CC(C)CC)C1=S` (stereo not given), the GI50 is 1.76 µM in experiment [1]; 2.17 µM in [2]; 1.82 µM in [3]; 1.63 µM in experiment [4]; 1.74 µM in [5]; 2.05 µM in experiment [6]. Moreover, the values for the GI50 in [7], in experiment [8] and in experiment [9] were 1.92 µM, 1.89 µM and 1.65 µM, respectively. Moreover, the TGI in experiment [1] was 3.14 µM; in experiment [2], 4.71 µM; in [3] it was 3.21 µM; in experiment [4] it was 2.98 µM; in experiment [5], 3.24 µM; in experiment [6], 6.87 µM. Besides, the values for the TGI in experiment [7], in [8] and in [9] were 4.11 µM, 3.55 µM and 3.05 µM, respectively.
As for `CC(C)(C)c1nnc2n(c1=O)N=CC(c1ccc(Br)cc1)S2` (stereo not given), the GI50 in experiment [1] was 29.6 µM; in [2], 29.3 µM; in [3], 37.5 µM; in [4], 42 µM; in experiment [5] it was 19.2 µM; in [6], 42.1 µM. Besides, the GI50 in experiment [7] is 42.7 µM; in experiment [8], 35.1 µM; in [9], 17.5 µM. Further, the TGI was 75.9 µM in experiment [1]; more than 100 µM in experiment [2]; more than 100 µM in experiment [3]; more than 100 µM in experiment [4]; 41.7 µM in [5]; more than 100 µM in experiment [6]. Besides, the TGI in experiment [7] is more than 100 µM; in [8], more than 100 µM; in experiment [9], 32.7 µM.
For the compound `COP1(=S)OCC2CCC[C@@H]2O1` (stereo not given in full), the TGI in experiment [10], in [1], in experiment [2], in experiment [5], in [6] and in experiment [7] was more than 100 µM each time. Further, the TGI in [8] and in experiment [9] was more than 100 µM in each case.
`COc1cccc2c(Nc3ccc(C(=O)NCCN(C)C)cc3)cc(-c3ccccc3)nc12`: the GI50 in experiment [10] was 17.2 µM; in [1], 17.6 µM; in [2], 16.4 µM; in experiment [3] it was 13.8 µM; in experiment [5], 16.6 µM; in [6], 13.3 µM. Also, the figures for the GI50 in experiment [8] and in experiment [9] were 14 µM and 18.2 µM, respectively. For the same compound, the TGI in experiment [10] was determined as 32 µM; in experiment [1], 37.9 µM; in [2], 33 µM; in experiment [3], 29.3 µM; in experiment [5], 32.4 µM; in experiment [6], 40.5 µM. Moreover, the TGI in experiment [8] is 33.4 µM; in experiment [9], 32.5 µM.
In the case of `CC(C)c1ccc(O)c(=O)cc1`, the TGI in [10] is more than 100 µM; in [1], more than 68.5 µM; in experiment [3] it was more than 100 µM; in experiment [5] it was 24.5 µM and 24.4 µM; in experiment [7], more than 62.1 µM; in experiment [8] it was more than 100 µM. Moreover, the TGI in [9] came to 21.8 µM. The GI50 is 4.46 µM in experiment [1]; 9.43 µM in experiment [2]; 3.75 µM in [3]; 5.08 µM in experiment [4]; 3.4 µM in [5]; 7.43 µM in [7]. Also, the GI50 in experiment [8] was 6.15 µM.
In the case of `COc1cc2c3c(n(CCCNCCN4CCOCC4)c(=O)c2cc1OC)-c1cc2c(cc1C3=O)OCO2`, the GI50 in experiment [10] was 4.1 µM and 16 µM; in experiment [2], 0.678 µM; in [5], 2.15 µM; in experiment [6], 1.9 µM and 1.59 µM; in [8] it was 0.0762 µM; in [9] it was 1.38 µM. The TGI in experiment [10] is 11.4 µM and 35.8 µM; in experiment [1] it was 0.658 µM and 2.62 µM; in experiment [2], 3.8 µM; in experiment [3] it was 0.79 µM and 1.93 µM; in experiment [5], more than 100 µM; in experiment [6], 9.18 µM and 4.91 µM. Also, the TGI is 8.09 µM and > 65.8 µM in [7]; 1.33 µM in [8]; 7.58 µM in experiment [9].
In the case of `OC(C(=Nc1ccccc1)c1ccccc1)c1ccccc1` (stereo not given), the TGI in experiment [10] was found to be 33.6 µM; in [1] it was 31.5 µM; in experiment [2] it was 21.7 µM; in experiment [3] it was 39.8 µM; in experiment [4], 45.4 µM; in experiment [5], 18.9 µM. The TGI in [7] stood at 17.4 µM; in [8] it was 66.5 µM; in [9] it was 15 µM.
Consider `O=[N+]([O-])c1ccc(O)c2ncccc12`, for which the GI50 was 42.5 µM and 4.81 µM in experiment [1]; 23.1 µM and 3.39 µM in [4]; 35.8 µM and 4.02 µM in experiment [6]. Moreover, the TGI in experiment [1] was > 100 µM and 35.8 µM; in experiment [2] it was > 100 µM and 15.2 µM; in [4], > 100 µM and 11.5 µM; in experiment [6], more than 100 µM; in experiment [7], > 100 µM and 16 µM; in experiment [8], > 100 µM and 18.6 µM. In addition, the TGI in experiment [9] is > 100 µM and 11.6 µM.
As to `COc1ccc(S(=O)(=O)N/N=C(\C)CN2C(=O)c3ccccc3C2=O)cc1`, the TGI in experiment [10], in [1], in experiment [3], in experiment [5], in experiment [7] and in experiment [8] was more than 100 µM in each case. The same compound gave a TGI in [9] of more than 100 µM.
